In patent US8163771B2, “11 β-HSD1 modulators” (Exelixis, Inc., priority 2008, dated 2012):

Molecular target: T1, recombinant human 11 β-HSD1 (Homo sapiens, UniProt P28845)
T1 construct: made in house; host or cells: E. coli
Test: 11 β-HSD1 SPA Assay (Scintillation Proximity Assay)
Assay type: biochemical
Procedure, shortened: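 Scintillation proximity read-out of cortisol formed from 40 nM [3H]cortisone by purified recombinant human enzyme (30-100 nM, E. coli) with 1 mM NADPH, pH7.4, 2 hours at room temperature; beads with cortisol antibody and glycyrrhetinic acid stop the reaction, read next day. IC50 derived from inhibition normalised to background and maximal wells.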

T1 sequence (P28845 whole entry): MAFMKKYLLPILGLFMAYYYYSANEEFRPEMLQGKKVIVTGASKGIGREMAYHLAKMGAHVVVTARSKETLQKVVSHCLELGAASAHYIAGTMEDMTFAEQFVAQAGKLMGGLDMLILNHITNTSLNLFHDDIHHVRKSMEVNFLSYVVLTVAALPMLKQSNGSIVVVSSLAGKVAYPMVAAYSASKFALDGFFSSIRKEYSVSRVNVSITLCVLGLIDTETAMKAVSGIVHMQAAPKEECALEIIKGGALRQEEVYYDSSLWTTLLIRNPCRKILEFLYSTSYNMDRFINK

Row | Compound | IC50 [µM]
1 | CC(C)(Oc1cc(OCCO)c(Cl)cc1Cl)C(=O)NC1CC2CCC(C1)N2c1ccc(C(=O)NC2CC2(F)F)cn1 (stereo not drawn) [Example 392, 6-[3-endo-({2-[2,4-dichloro-5-(2-hydroxyethoxy)phenoxy]-2-methylpropanoyl}amino)-8-azabicyclo[3.2.1]oct-8-yl]-N-(2,2-difluorocyclopropyl)pyridine-3-carboxamide] | < 0.2
2 | CC(C)(Oc1ccccc1C(F)(F)F)C(=O)N[C@H]1C[C@H]2CC[C@@H](C1)N2c1ccc(C(N)=O)cn1 [Example 164, 6-{3-endo-[(2-methyl-2-{[2-(trifluoromethyl)phenyl]oxy}propanoyl)amino]-8-azabicyclo[3.2.1]oct-8-yl}pyridine-3-carboxamide] | < 0.2
3 | CC(C)(Oc1ccc(F)cc1S(C)(=O)=O)C(=O)N[C@H]1C[C@H]2CC[C@@H](C1)N2c1ccc(C(N)=O)cn1 [Example 269, 6-{3-endo-[(2-{[4-fluoro-2-(methylsulfonyl)phenyl]oxy}-2-methylpropanoyl)amino]-8-azabicyclo[3.2.1]oct-8-yl}pyridine-3-carboxamide] | < 0.2
4 | CC(C)(Oc1ccc(Cl)cc1Cl)C(=O)N[C@H]1C[C@H]2CC[C@@H](C1)N2c1ccc(C(=O)Nc2ccon2)cn1 [Example 386, 6-(3-endo-{[2-(2,4-dichlorophenoxy)-2-methylpropanoyl]amino}-8-azabicyclo[3.2.1]oct-8-yl)-N-(isoxazol-3-yl)pyridine-3-carboxamide] | < 0.2
5 | CC(C)(Oc1ccc(Cl)cc1N1CCOCC1)C(=O)N[C@H]1C[C@H]2CC[C@@H](C1)N2c1ccc(C(=O)NCC(F)(F)F)cn1 [Example 359, 6-[3-endo-({2-[4-chloro-2-(morpholin-4-yl)phenoxy]-2-methylpropanoyl}amino)-8-azabicyclo[3.2.1]oct-8-yl]-N-(2,2,2-trifluoroethyl)pyridine-3-carboxamide] | < 0.2
6 | CS(=O)(=O)c1ccc(N2[C@@H]3CC[C@H]2C[C@@H](NC(=O)C2(c4ccc(F)c(Cl)c4)CC2)C3)nc1 [Example 332, 1-(3-chloro-4-fluorophenyl)-N-{8-[5-(methylsulfonyl)pyridin-2-yl]-8-azabicyclo[3.2.1]oct-3-endo-yl}cyclopropanecarboxamide] | < 0.2
7 | CC(C)(Oc1cc(Cl)c(F)cc1Cl)C(=O)N[C@H]1C[C@H]2CC[C@@H](C1)N2c1ccc(C(N)=O)cn1 [Example 99, 6-[3-endo-({2-[(2,5-dichloro-4-fluorophenyl)oxy]-2-methylpropanoyl}amino)-8-azabicyclo[3.2.1]oct-8-yl]pyridine-3-carboxamide] | < 0.2
8 | CC(C)(Oc1ccc(Cl)cc1Cl)C(=O)N[C@H]1C[C@H]2CC[C@@H](C1)N2c1ncc(C(=O)NC2CC2)cc1Cl [Example 86, 5-chloro-N-cyclopropyl-6-[3-endo-({2-[(2,4-dichlorophenyl)oxy]-2-methylpropanoyl}amino)-8-azabicyclo[3.2.1]oct-8-yl]pyridine-3-carboxamide] | < 0.2
9 | CC(C)(Oc1cc(F)c(F)cc1Cl)C(=O)N[C@H]1C[C@H]2CC[C@@H](C1)N2c1ccc(C(N)=O)cn1 [Example 96, 6-[3-endo-({2-[(2-chloro-4,5-difluorophenyl)oxy]-2-methylpropanoyl}amino)-8-azabicyclo[3.2.1]oct-8-yl]pyridine-3-carboxamide] | < 0.2
10 | CC(C)(Oc1ccc(Cl)cc1)C(=O)N[C@H]1C[C@H]2CC[C@@H](C1)N2c1ncc(C(=O)NC2CC2)cn1 [Example 36, 2-[3-endo-({2-[(4-chlorophenyl)oxy]-2-methylpropanoyl}amino)-8-azabicyclo[3.2.1]oct-8-yl]-N-cyclopropylpyrimidine-5-carboxamide] | < 0.2
11 | 2-[(2,4-dichlorophenyl)oxy]-N-{8-[5-(1-hydroxy-1-methylethyl)pyridin-2-yl]-8-azabicyclo[3.2.1]oct-3-endo-yl}-2-methylpropanamide [Example 53] | < 2
12 | CC(C)(Oc1cc(Cl)c(F)cc1Cl)C(=O)N[C@H]1C[C@H]2CC[C@@H](C1)N2c1ncc(C(=O)NCC(F)(F)F)cc1F [Example 162, 6-[3-endo-({2-[(2,5-dichloro-4-fluorophenyl)oxy]-2-methylpropanoyl}amino)-8-azabicyclo[3.2.1]oct-8-yl]-5-fluoro-N-(2,2,2-trifluoroethyl)pyridine-3-carboxamide] | < 0.2
13 | CC(C)(Oc1ccc(Cl)cc1F)C(=O)N[C@H]1C[C@H]2CC[C@@H](C1)N2c1ccc(C(=O)NCC(F)F)cn1 [Example 447, 6-(3-endo-{[2-(4-chloro-2-fluorophenoxy)-2-methylpropanoyl]amino}-8-azabicyclo[3.2.1]oct-8-yl)-N-(2,2-difluoroethyl)pyridine-3-carboxamide] | < 0.2
14 | CC(C)(CN1CCCC1)NC(=O)c1ccc(N2[C@@H]3CC[C@H]2C[C@@H](NC(=O)C(C)(C)Oc2ccc(Cl)cc2Cl)C3)nc1 [Example 350, 6-(3-endo-{[2-(2,4-dichlorophenoxy)-2-methylpropanoyl]amino}-8-azabicyclo[3.2.1]oct-8-yl)-N-[2-methyl-1-(pyrrolidin-1-yl)propan-2-yl]pyridine-3-carboxamide] | < 0.2
15 | CC(C)(Oc1cc(C(C)(C)O)c(F)cc1F)C(=O)N[C@H]1C[C@H]2CC[C@@H](C1)N2c1ccc(C(=O)NCC(F)F)cn1 [Example 468, N-(2,2-difluoroethyl)-6-[3-endo-({2-[2,4-difluoro-5-(2-hydroxypropan-2-yl)phenoxy]-2-methylpropanoyl}amino)-8-azabicyclo[3.2.1]oct-8-yl]pyridine-3-carboxamide] | < 0.2
16 | CC(C)(Oc1ccc(Cl)cc1C(F)(F)F)C(=O)N[C@H]1C[C@H]2CC[C@@H](C1)N2c1ccc(NS(C)(=O)=O)cn1 [Example 333, 2-{[4-chloro-2-(trifluoromethyl)phenyl]oxy}-2-methyl-N-(8-{5-[(methylsulfonyl)amino]pyridin-2-yl}-8-azabicyclo[3.2.1]oct-3-endo-yl)propanamide] | < 0.2
17 | CC(C)(Oc1ccc(Cl)cc1Cl)C(=O)N[C@H]1C[C@H]2CC[C@@H](C1)N2c1ccc(S(C)(=O)=O)cn1 [Example 140, 2-[(2,4-dichlorophenyl)oxy]-2-methyl-N-{8-[5-(methylsulfonyl)pyridin-2-yl]-8-azabicyclo[3.2.1]oct-3-endo-yl}propanamide] | < 0.2
18 | CC(C)(Oc1ccccc1C(F)(F)F)C(=O)N[C@H]1C[C@H]2CC[C@@H](C1)N2c1ccc(S(N)(=O)=O)cn1 [Example 256, N-{8-[5-(aminosulfonyl)pyridin-2-yl]-8-azabicyclo[3.2.1]oct-3-endo-yl}-2-methyl-2-{[2-(trifluoromethyl)phenyl]oxy}propanamide] | < 0.2
19 | CC(C)(Oc1ccc(Cl)cc1Cl)C(=O)N[C@H]1C[C@H]2CC[C@@H](C1)N2c1ccc(C(=O)NC2CCS(=O)(=O)CC2)cn1 [Example 379, 6-(3-endo-{[2-(2,4-dichlorophenoxy)-2-methylpropanoyl]amino}-8-azabicyclo[3.2.1]oct-8-yl)-N-(1,1-dioxidotetrahydro-2h-thiopyran-4-yl)pyridine-3-carboxamide] | < 0.2
20 | CC(C)(Oc1ccc(Cl)cc1C(=O)O)C(=O)N[C@H]1C[C@H]2CC[C@@H](C1)N2c1ccc(C(=O)NCC(F)(F)F)cn1 [Example 375, 5-chloro-2-({2-methyl-1-oxo-1-[(8-{5-[(2,2,2-trifluoroethyl)carbamoyl]pyridin-2-yl}-8-azabicyclo[3.2.1]oct-3-endo-yl)amino]propan-2-yl}oxy)benzoic acid] | < 0.2
